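Following 48 hours of exposure in 96-well plates, responses at five concentrations were used to interpolate endpoints linearly. GI50 marks 50% less growth. TGI denotes the concentration required for complete inhibition of growth.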

Some test systems named below: BT-549 breast; 786-0 renal; MDA-MB-231 breast; OVCAR-4 ovarian; MCF7 breast; NCI/ADR-RES ovarian.
Common to all, as to experiment: inhibition of tumour cell growth, NCI panel, 48 h

Regarding `CN1c2ccc(Cl)cc2C(=O)NC1c1ccc([N+](=O)[O-])s1` (stereo unspecified), the TGI in the test with BT-549 breast is 34.8 µM; with 786-0 renal, 30.8 µM; with MDA-MB-231 breast, 33.1 µM; with OVCAR-4 ovarian, 71.5 µM; in the test on MCF7 breast, 44.6 µM; with NCI/ADR-RES ovarian it was 35.3 µM.
For the molecule `CCOC(=O)c1c(C)n(Cc2ccc(Cl)cc2Cl)c2c1c(CN(C)C)c(O)c1[nH]cnc12`, the GI50 was 23.6 µM with BT-549 breast, 20.1 µM in the test with 786-0 renal, 16.3 µM in the test with MDA-MB-231 breast and 16.7 µM with OVCAR-4 ovarian. Further, the TGI with BT-549 breast was 48.5 µM; in the test with 786-0 renal, 41.4 µM; in the test with MDA-MB-231 breast it was 31.9 µM; in the test with OVCAR-4 ovarian, 85.7 µM.
For `C=C1C(=O)O[C@H]2[C@H]1CC/C(COC(=O)C(=O)c1cn(Cc3ccccc3)c3ccccc13)=C\CC[C@@]1(C)O[C@@H]21`, the GI50 in the test with BT-549 breast is 1.8 µM; in the test with 786-0 renal, 1.93 µM; in the test on MDA-MB-231 breast, 2.17 µM; with OVCAR-4 ovarian it was 4.19 µM; in the test with MCF7 breast, 1.19 µM; with NCI/ADR-RES ovarian, 2.75 µM. Also, the TGI was 4.1 µM in the test with BT-549 breast; 4.03 µM in the test on 786-0 renal; 5.01 µM with MDA-MB-231 breast; above 100 µM with OVCAR-4 ovarian; 3.06 µM in the test on MCF7 breast; 9.83 µM in the test on NCI/ADR-RES ovarian.
As to `N#C/C(=C1C=C(Br)/C(=N\O)C=C\1Cl)c1cccc2ccccc12`, the TGI in the test with BT-549 breast is 22.1 µM; with 786-0 renal, 13.6 µM; in the test on MDA-MB-231 breast, 16.3 µM; in the test with OVCAR-4 ovarian, 7.6 µM; with MCF7 breast, 28.6 µM; in the test on NCI/ADR-RES ovarian, above 100 µM.
On to `COc1cc(-c2ccc3c(c2)NC(=O)/C3=C\c2ccc[nH]2)ccc1O`, for which the GI50 with BT-549 breast is 0.0968 µM; in the test with 786-0 renal it was 0.0385 µM; in the test on MDA-MB-231 breast, 0.0409 µM; with OVCAR-4 ovarian, 2.58 µM; in the test with MCF7 breast, 0.0888 µM; in the test with NCI/ADR-RES ovarian, 0.0177 µM. Besides, the TGI in the test on BT-549 breast was above 50 µM; with 786-0 renal, above 21.1 µM; in the test with MDA-MB-231 breast it was above 50 µM; in the test with OVCAR-4 ovarian it was above 50 µM; with MCF7 breast it was above 50 µM; in the test on NCI/ADR-RES ovarian it was above 50 µM.
Take `O=C(N/N=C/c1ccc(Cl)cc1)c1ccc(C(F)(F)F)nc1Nc1cccc(C(F)(F)F)c1`: the GI50 is 2.72 µM with BT-549 breast; 0.818 µM with 786-0 renal; 2.22 µM with MDA-MB-231 breast; 0.736 µM in the test on OVCAR-4 ovarian; 2.26 µM in the test with MCF7 breast; 1.96 µM in the test on NCI/ADR-RES ovarian. For the same molecule, the TGI in the test with BT-549 breast stood at 11.7 µM; in the test with 786-0 renal it was 3.63 µM; in the test with MDA-MB-231 breast, 8.83 µM; in the test on OVCAR-4 ovarian, 15.2 µM; with MCF7 breast, 10.8 µM; with NCI/ADR-RES ovarian it was 6.99 µM.
In the case of `COc1ccc(Nc2c3ccccc3nc3occc23)cc1`, the GI50 in the test on BT-549 breast was 18.4 µM; in the test on 786-0 renal it was 5.83 µM; in the test with MDA-MB-231 breast it was 3.66 µM; with OVCAR-4 ovarian it was 16.9 µM; in the test with MCF7 breast, 0.682 µM; with NCI/ADR-RES ovarian, 0.921 µM. For the same molecule, the TGI in the test with BT-549 breast was 45.8 µM; in the test on 786-0 renal, above 51.5 µM; with MDA-MB-231 breast, 22.7 µM; in the test with OVCAR-4 ovarian, above 100 µM; in the test with MCF7 breast it was 36.1 µM; in the test on NCI/ADR-RES ovarian, above 36.8 µM.
As for `CCOC(=O)[C@@H](N)CCC(=O)N[C@@H](CSCc1ccccc1)C(=O)N[C@@H](C(=O)OCC)c1ccccc1`, the GI50 with BT-549 breast was 17.5 µM; in the test on 786-0 renal it was 17.7 µM; in the test on MDA-MB-231 breast, 18.1 µM; in the test on OVCAR-4 ovarian it was 27.5 µM; with MCF7 breast, 16.5 µM; with NCI/ADR-RES ovarian, above 100 µM. In addition, the TGI was 33 µM in the test with BT-549 breast; 33.7 µM with 786-0 renal; 34.1 µM in the test with MDA-MB-231 breast; above 57.1 µM in the test with OVCAR-4 ovarian; 33.9 µM with MCF7 breast; above 100 µM in the test with NCI/ADR-RES ovarian.
In the case of `CC(=O)CSCc1ccccn1`, the TGI in the test with BT-549 breast, in the test with 786-0 renal, with MDA-MB-231 breast, with OVCAR-4 ovarian and with NCI/ADR-RES ovarian was above 100 µM throughout.
Turning to `COc1ccc(-c2n[nH]nc2-c2cc(OC)c(OC)c(OC)c2)cc1`, the GI50 with 786-0 renal is below 0.01 µM; with OVCAR-4 ovarian, below 0.0144 µM; in the test with MCF7 breast, below 0.01 µM. In addition, the TGI is 17.5 µM in the test with 786-0 renal, 43.3 µM in the test with OVCAR-4 ovarian and above 80.7 µM in the test on MCF7 breast.
`Cc1ccc(C(=O)CN(/C=C/C(=O)C(F)(F)F)c2ccc(S(N)(=O)=O)cc2)cc1`: the GI50 was 58.9 µM in the test on BT-549 breast; above 100 µM in the test on 786-0 renal; above 100 µM in the test with MDA-MB-231 breast; above 100 µM with OVCAR-4 ovarian; 59.8 µM in the test on MCF7 breast; 62.9 µM with NCI/ADR-RES ovarian. Besides, the TGI with BT-549 breast, in the test on 786-0 renal, in the test with MDA-MB-231 breast, in the test on OVCAR-4 ovarian, in the test on MCF7 breast and in the test on NCI/ADR-RES ovarian was above 100 µM in each case.
Take `CC(C)(C)c1cc(Br)c(O)c(CN(Cc2cc(C(C)(C)C)cc(Br)c2O)C2CCCCC2)c1`: the TGI with BT-549 breast was found to be 29.2 µM; in the test on 786-0 renal, 27.7 µM; in the test with MDA-MB-231 breast, 28.2 µM; in the test on OVCAR-4 ovarian, 22.3 µM; with MCF7 breast it was 26.8 µM; in the test with NCI/ADR-RES ovarian it was 24.3 µM.
Consider `CN1CCN(CCCOc2ccc3nc(Nc4ccc(Cl)c(C(F)(F)F)c4)ccc3c2)CC1`, for which the GI50 in the test on BT-549 breast was 14.2 µM; in the test on 786-0 renal it was 13.9 µM; in the test on MDA-MB-231 breast, 7.59 µM; in the test on OVCAR-4 ovarian, 12.7 µM; in the test on MCF7 breast, 4.94 µM; in the test on NCI/ADR-RES ovarian, 14.7 µM. Besides, the TGI with BT-549 breast amounted to 27.7 µM; in the test on 786-0 renal, 28.2 µM; with MDA-MB-231 breast, 23.1 µM; with OVCAR-4 ovarian, 26.4 µM; in the test on MCF7 breast it was 22 µM; in the test with NCI/ADR-RES ovarian it was 33.2 µM.

For the origin of these results see PubChem BioAssay (NCI).
